Results taken from patent publication US11465986B2, “Crystal form of c-MET inhibitor and salt form thereof and preparation method therefor” (FUJIAN AKEYLINK BIOTECHNOLOGY CO., LTD., priority 2018, dated 2022).
Values joined by “and” are separate entries in the source; they are usually repeats but may differ in a detail not shown here. Identical values can stand only once. “Also recorded” adds a separate entry of the source.

Assays:
[1] = test system: human liver cancer MHCC97H cell xenograft tumor; test: In vivo efficacy, MHCC97H subcutaneous xenograft tumor model; set-up: species or system BALB/c nude mice; details: for tumor volume (24th day): 24th day after administration, average value±SEM; for T/C / TGI: based on the tumor volume on the 24th day after administration
Protocol: MHCC97H cells were cultured in a single layer in-vitro. The culturing condition was RPMI1640 medium supplemented with 10% heat-inactivated fetal bovine serum, 1% penicillin-streptomycin double antibody under 37° C., 5% carbon dioxide. Digestion and passage treatment with trypsin-EDTA was done twice a week. When the cells were in the exponential growing phase, the cells were collected, counted and inoculated.
BALB/c nude mice, male. 6-8 weeks old, weighting 18-22 g.
0.2 mL of a cell suspension containing 5×10^6 MHCC97H was subcutaneously inoculated into the right back of each mouse. Drugs were administered by group after the average tumor volume reached approximately 172 mm^3.
Investigation of whether the tumor growth was inhibited, delayed or cured. The diameters of the tumor were measured twice a week using a vernier caliper. The formula for calculating the tumor volume is V=0.5a×b^2, and a and b represent the long and short diameters of the tumor respectively. The antitumor effect (TGI) of the compound was evaluated by T-C (days) and TIC (%).
Remark: a. average value±SEM; b. p value was calculated based on the tumor volume.

[2] = Liver microsome metabolism, human; assay type: in vitro ADME
[3] = Liver microsome metabolism, rat; assay type: in vitro ADME
[4] = Liver microsome metabolism, mouse; assay type: in vitro ADME
MHCC97-H cells [5] = details: read-out: IC50 on MHCC97-H cells; background section; cited from earlier work
MHCC97-H cells [6] = test system: MHCC97-H cells
Protocol: The cell plates were incubated in a carbon dioxide incubator for 3 days.

[7] = Stability test of the crystal forms (HPLC impurity content); assay type: physicochemical; details: for Impurity content, relative retention time 0.93 / Impurity content, relative retention time 1.07 / Total impurities / Impurity content, relative retention time 0.99 / Impurity content, relative retention time 1.39 / Impurity content, relative retention time 1.48 / Impurity content, relative retention time 1.05 / Impurity content, relative retention time 1.43: form A
Protocol: The method for High Performance Liquid Chromatograph (HPLC) in the present disclosure
Instrument Model: Agilent 1200 High Performance Liquid Chromatograph
The analysis method is as follows: […]
About 10 mg of the crystal form B of the compound represented by formula (II) was weighted and placed under stability test conditions, and the samples were collected and analyzed after 5 days, 10 days, and 1 month.
About 10 mg of the crystal form C of the compound represented by formula (III) was weighted and placed under stability test conditions, and the samples were collected and analyzed after 5 days, 10 days, and 1 month respectively.

[8] = Hygroscopicity study (weight gain over saturated ammonium chloride solution, 25° C., 24 hours); assay type: physicochemical
Protocol: The hygroscopicity was evaluated using the scales in the following Table 4:
3 dry glass weighing bottles with stopper (outer diameter of 50 mm, height of 30 mm) were placed in a desiccator having saturated ammonium chloride solution placed at the bottom, the weighing bottles were left open, and the desiccator was covered with lid, placed in a thermostat setting at 25° C. overnight.
The weighing bottles were took out and accurately weighed, the weight data were noted as m11, m12 and m13 respectively.
An appropriate amount of the crystal form A of the compound represented by formula (I), was spread in the weighed weighing bottles (the thickness of the sample was about 1 mm), and then accurately weighed, the weight data were noted as m21, m22 and m23, respectively.
The open weighing bottles and the bottle stoppers were placed in a desiccator having saturated ammonium chloride solution placed at the bottom, and the desiccator was covered with a lid, placed in a thermostat setting at 25° C. for 24 hours.
After standing for 24 hours, the weighing bottles were closed with the stoppers, then accurately weighed, and the weight data were noted as m31, m32 and m33.
Hygroscopicity weight gain was calculated, the calculation formula was as follows: Percentage gain=100%×(m3−m2)/(m2−m1)

[9] = Solubility test in different solvents; assay type: physicochemical; details: 25° C.±2° C.
Protocol: (§1) 10 mg of the crystal form A of the compound represented by formula (I) was placed into a glass bottle, 1 mL of solvent was added thereto and the bottle was shaken vigorously for 30 seconds every 5 minutes at 25° C.±2° C., the dissolution was observed over 30 minutes. The corresponding data were recorded in the table.
as §1, with “For insoluble samples, another 1” for “10”, “an appropriate” for “1 mL of”, “thereto,” for “thereto”, “Table 10.” for “the table.”

[10] = Stability test of the crystal forms (HPLC impurity content); assay type: physicochemical; details: form A, 5 days
[11] = liver microsomes, read-out: t1/2 by liver microsome metabolism
[12] = 40° C. Relative humidity 75%, 1 month
[13] = 40° C. Relative humidity 75%, 2 months
[14] = 40° C. Relative humidity 75%, 10 days
[15] = 60° C. Relative humidity 75%, 1 month
[16] = 60° C. Relative humidity 75%, 2 months
[17] = 60° C. Relative humidity 75%, 10 days
[18] = Light (total illuminance = 1.2 × 106 Lux · hr/near ultraviolet = 200 w · hr/m^2)
[19] = Relative humidity 92.5%, 5 days
[20] = Relative humidity 92.5%, 10 days

CN1CCC(COc2cnc(-c3cccc(Cn4nc(-c5cccc(C#N)c5)ccc4=O)c3)nc2)CC1 [Tepotinib, reference compound]
tumor volume (24th day) [1]: 255 ± 5 mm^3
T/C [1]: 12.4%
TGI [1]: 95.6%
half-life [2, 11]: 48.3 min
half-life [3, 11]: 10.5 min
half-life [4, 11]: 12.4 min
IC50 (MHCC97-H cells [5]): 6.2 nM

C[C@H](c1cccc(-c2ncc(OCC3CCN(C)CC3)cn2)c1)n1cc(-c2cc(C#N)ccn2)cc(F)c1=O [compound represented by formula (I)]
Inhibitory activity on MHCC97H cell, in words (MHCC97-H cells [6]): good inhibitory activity
tumor volume (24th day) [1]: 153 ± 12 mm^3
Tumor inhibitory effect compared with tepotinib, in words ([1]; MHCC97H liver cancer cell subcutaneous xenograft tumor model): better tumor inhibitory effect than tepotinib
T/C [1]: 7.4%
TGI [1]: 101.0%
t1/2 by liver microsome metabolism [2]: 62.1 min
t1/2 by liver microsome metabolism [3]: 36.5 min
t1/2 by liver microsome metabolism [4]: 49.1 min

C[C@H](c1cccc(-c2ncc(OCC3CCN(C)CC3)cn2)c1)n1cc(-c2cc(C#N)ccn2)cc(F)c1=O [crystal form A of the compound represented by formula (I)]
Impurity content, relative retention time 0.93 ([7]; 0 day): 0.14%
Impurity content, relative retention time 1.07 ([7]; 0 day): 0.52%
Total impurities ([7]; 0 day): 0.67%
Impurity content, relative retention time 0.93 [7, 12]: 0.12%
Impurity content, relative retention time 1.07 [7, 12]: 0.45%
Total impurities [7, 12]: 0.63%
Impurity content, relative retention time 0.93 [7, 13]: 0.15%
Impurity content, relative retention time 1.07 [7, 13]: 0.52%
Total impurities [7, 13]: 0.66%
Impurity content, relative retention time 0.93 [7, 14]: 0.14%
Impurity content, relative retention time 1.07 [7, 14]: 0.5%
Total impurities [7, 14]: 0.58%
Impurity content, relative retention time 0.93 [7, 15]: 0.13%
Impurity content, relative retention time 1.07 [7, 15]: 0.49%
Total impurities [7, 15]: 0.62%
Impurity content, relative retention time 0.93 [7, 16]: 0.17%
Impurity content, relative retention time 1.07 [7, 16]: 0.59%
Total impurities [7, 16]: 0.75%
Impurity content, relative retention time 0.93 [7, 17]: 0.14%
Impurity content, relative retention time 1.07 [7, 17]: 0.53%
Total impurities [7, 17]: 0.67%
Impurity content, relative retention time 0.93 ([7]; 60° C., 5 days): 0.12%
Impurity content, relative retention time 0.99 ([7]; 60° C., 5 days): 0.13%
Impurity content, relative retention time 1.07 ([7]; 60° C., 5 days): 0.47%
Impurity content, relative retention time 1.39 ([7]; 60° C., 5 days): 0.17%
Impurity content, relative retention time 1.48 ([7]; 60° C., 5 days): 0.1%
Impurity content, relative retention time 0.93 ([7]; 60° C., 10 days): 0.12%
Impurity content, relative retention time 0.99 ([7]; 60° C., 10 days): 0.19%
Impurity content, relative retention time 1.05 ([7]; 60° C., 10 days): 0.14%
Impurity content, relative retention time 1.07 ([7]; 60° C., 10 days): 0.45%
Impurity content, relative retention time 1.39 ([7]; 60° C., 10 days): 0.41%
Impurity content, relative retention time 1.43 ([7]; 60° C., 10 days): 0.11%
Impurity content, relative retention time 1.48 ([7]; 60° C., 10 days): 0.23%
Total impurities ([7]; 60° C., 10 days): 1.64%
Impurity content, relative retention time 0.93 [7, 18]: 0.11%
Impurity content, relative retention time 0.99 [7, 18]: 0.29%
Impurity content, relative retention time 1.05 [7, 18]: 0.8%
Impurity content, relative retention time 1.07 [7, 18]: 0.46%
Impurity content, relative retention time 1.39 [7, 18]: 3.98%
Impurity content, relative retention time 1.43 [7, 18]: 1.18%
Impurity content, relative retention time 1.48 [7, 18]: 1.62%
Total impurities [7, 18]: 13.45%
Impurity content, relative retention time 0.93 [7, 19]: 0.14%
Total impurities [7, 19]: 0.67%
Impurity content, relative retention time 0.93 [7, 20]: 0.14%
Impurity content, relative retention time 1.07 [7, 20]: 0.52%
Total impurities [7, 20]: 0.67%
Stability, conclusion in words ([7]; stress conditions (high temperature, high humidity, light)): good stability
Average value of percentage gain (average hygroscopicity) ([8]; 25° C., 24 hours over saturated ammonium chloride solution, mean of 3 samples): 0.060%
Percentage gain (hygroscopic weight gain), single samples ([8]; 25° C., 24 hours over saturated ammonium chloride solution, samples No. 1-3): 0.03% and 0.08% and 0.07%
Hygroscopicity scale ([8]; classified by the average weight gain): no or almost no hygroscopicity
Solubility classification ([9]; 0.1N HCl): Soluble
Solubility classification ([9]; 0.1N NaOH): practically insoluble or insoluble; also recorded: Practically insoluble
Solubility classification ([9]; Acetonitrile): Very slightly soluble
Solubility classification ([9]; Diethylamine): practically insoluble or insoluble; also recorded: Practically insoluble
Solubility classification ([9]; Ethanol): very slightly soluble
Solubility classification ([9]; Ethyl acetate): Very slightly soluble
Solubility classification ([9]; N-Methylpyrrolidone): Very soluble
Solubility classification ([9]; Tetrahydrofuran): Sparingly soluble
Solubility classification ([9]; Trifluoroacetic acid): Sparingly soluble
Solubility classification ([9]; acetone): Slightly soluble
Solubility classification ([9]; n-Hexane): practically insoluble or insoluble; also recorded: Practically insoluble
Solubility classification ([9]; water): Very soluble
Total impurities ([10]; 60° C.): 0.99%
Impurity content, relative retention time 1.07 ([10]; Relative humidity 92.5%): 0.53%
